For three compounds, growth rate results are on record in US20210307271A1, “OPTIMIZATION OF ALGAL PRODUCT PRODUCTION THROUGH UNCOUPLING CELL PROLIFERATION AND ALGAL PRODUCT PRODUCTION” (priority 2008, published 2021).

One assay deals with Scenedesmus obliquus. Briefly: Effect of hormone concentrations on growth rate, photoheterotrophic conditions, 48 hours. The class given is cell-based. Also noted: unit not given here. Particulars: hormone 0.01 ng, control 0.41 ± 0.042.
`c1coc(CNc2ncnc3[nH]cnc23)c1` [Kinetin, kinetin] registered a growth rate of 0.57 ± 0.133.

`O=C(O)COc1ccc(Cl)cc1Cl` [2,4-Dichlorophenoxyacetic, 2,4-dichlorophenoxyacetic acid] came in with a growth rate of 0.42 ± 0.035.

Regarding `O=C(O)Cc1c[nH]c2ccccc12` [Indole-3-acetic acid, indole-3-acetic acid], the growth rate was determined as 0.42 ± 0.020.

The same assay, now with this note: hormone 0.1 ng, control 0.41 ± 0.042.
`c1coc(CNc2ncnc3[nH]cnc23)c1` [Kinetin, kinetin] came in with a growth rate of 0.73 ± 0.042.

In the case of `O=C(O)COc1ccc(Cl)cc1Cl` [2,4-Dichlorophenoxyacetic, 2,4-dichlorophenoxyacetic acid], the growth rate is 0.44 ± 0.000.

For `O=C(O)Cc1c[nH]c2ccccc12` [Indole-3-acetic acid, indole-3-acetic acid], the growth rate is reported as 0.47 ± 0.061.

The assay is the same for the next values; noted with them: hormone 1 ng, control 0.41 ± 0.042.
The compound `c1coc(CNc2ncnc3[nH]cnc23)c1` [Kinetin, kinetin] displayed a growth rate of 0.92 ± 0.113.

For the compound `O=C(O)COc1ccc(Cl)cc1Cl` [2,4-Dichlorophenoxyacetic, 2,4-dichlorophenoxyacetic acid], the growth rate came out at 0.47 ± 0.023.

Take `O=C(O)Cc1c[nH]c2ccccc12` [Indole-3-acetic acid, indole-3-acetic acid]: the growth rate is 0.49 ± 0.030.

The same assay, now with this note: hormone 10 ng, control 0.41 ± 0.042.
The compound `c1coc(CNc2ncnc3[nH]cnc23)c1` [Kinetin, kinetin] showed a growth rate of 0.37 ± 0.070.

Take `O=C(O)COc1ccc(Cl)cc1Cl` [2,4-Dichlorophenoxyacetic, 2,4-dichlorophenoxyacetic acid]: the growth rate was 0.44 ± 0.028.

`O=C(O)Cc1c[nH]c2ccccc12` [Indole-3-acetic acid, indole-3-acetic acid]: the growth rate turned out to be 0.49 ± 0.023.

The assay is the same for the next values; noted with them: hormone 100 ng, control 0.41 ± 0.042.
Take `c1coc(CNc2ncnc3[nH]cnc23)c1` [Kinetin, kinetin]: the growth rate turned out to be 0.36 ± 0.060.

`O=C(O)COc1ccc(Cl)cc1Cl` [2,4-Dichlorophenoxyacetic, 2,4-dichlorophenoxyacetic acid] displayed a growth rate of 0.33 ± 0.042.

Compound `O=C(O)Cc1c[nH]c2ccccc12` [Indole-3-acetic acid, indole-3-acetic acid] came in with a growth rate of 0.62 ± 0.092.

A further assay deals with Scenedesmus obliquus. Briefly: Effect of hormone concentrations on growth rate, heterotrophic conditions, 48 hours. The class given is cell-based. On the set-up: unit not given here. Particulars: hormone 0.01 ng, control 0.35 ± 0.023.
The compound `c1coc(CNc2ncnc3[nH]cnc23)c1` [Kinetin, kinetin] returned a growth rate of 0.28 ± 0.061.

`O=C(O)COc1ccc(Cl)cc1Cl` [2,4-Dichlorophenoxyacetic, 2,4-dichlorophenoxyacetic acid] had a growth rate of 0.28 ± 0.030.

Regarding `O=C(O)Cc1c[nH]c2ccccc12` [Indole-3-acetic acid, indole-3-acetic acid], the growth rate came to 0.23 ± 0.020.

The assay is the same for the next values; noted with them: hormone 0.1 ng, control 0.35 ± 0.023.
The compound `c1coc(CNc2ncnc3[nH]cnc23)c1` [Kinetin, kinetin] registered a growth rate of 0.26 ± 0.076.

Take `O=C(O)COc1ccc(Cl)cc1Cl` [2,4-Dichlorophenoxyacetic, 2,4-dichlorophenoxyacetic acid]: the growth rate came to 0.23 ± 0.040.

The compound `O=C(O)Cc1c[nH]c2ccccc12` [Indole-3-acetic acid, indole-3-acetic acid] registered a growth rate of 0.36 ± 0.127.

The assay is the same for the next values; noted with them: hormone 1 ng, control 0.35 ± 0.023.
Regarding `c1coc(CNc2ncnc3[nH]cnc23)c1` [Kinetin, kinetin], the growth rate is 0.36 ± 0.042.

On to `O=C(O)COc1ccc(Cl)cc1Cl` [2,4-Dichlorophenoxyacetic, 2,4-dichlorophenoxyacetic acid], for which the growth rate was determined as 0.31 ± 0.020.

`O=C(O)Cc1c[nH]c2ccccc12` [Indole-3-acetic acid, indole-3-acetic acid]: the growth rate was determined as 0.42 ± 0.081.

The same assay, now with this note: hormone 10 ng, control 0.35 ± 0.023.
Take `c1coc(CNc2ncnc3[nH]cnc23)c1` [Kinetin, kinetin]: the growth rate is 0.31 ± 0.028.

For the compound `O=C(O)COc1ccc(Cl)cc1Cl` [2,4-Dichlorophenoxyacetic, 2,4-dichlorophenoxyacetic acid], the growth rate came to 0.24 ± 0.081.

Take `O=C(O)Cc1c[nH]c2ccccc12` [Indole-3-acetic acid, indole-3-acetic acid]: the growth rate amounted to 0.47 ± 0.020.

The assay is the same for the next values; noted with them: hormone 100 ng, control 0.35 ± 0.023.
In turn, `c1coc(CNc2ncnc3[nH]cnc23)c1` [Kinetin, kinetin] showed a growth rate of 0.28 ± 0.076.

Turning to `O=C(O)COc1ccc(Cl)cc1Cl` [2,4-Dichlorophenoxyacetic, 2,4-dichlorophenoxyacetic acid], the growth rate was found to be 0.23 ± 0.040.

As to `O=C(O)Cc1c[nH]c2ccccc12` [Indole-3-acetic acid, indole-3-acetic acid], the growth rate amounted to 0.41 ± 0.053.

Another assay has as its system Chlorella protothecoides. Briefly: Effect of hormone concentrations on growth rate, photoheterotrophic conditions, 48 hours. The assay is classed as cell-based. Also noted: unit not given here. Particulars: hormone 0.01 ng, control 1.05 ± 0.020.
`c1coc(CNc2ncnc3[nH]cnc23)c1` [Kinetin, kinetin] registered a growth rate of 1.08 ± 0.023.

The compound `O=C(O)COc1ccc(Cl)cc1Cl` [2,4-Dichlorophenoxyacetic, 2,4-dichlorophenoxyacetic acid] registered a growth rate of 1.09 ± 0.035.

Compound `O=C(O)Cc1c[nH]c2ccccc12` [Indole-3-acetic acid, indole-3-acetic acid] displayed a growth rate of 1.06 ± 0.030.

Staying with this assay, now noted: hormone 0.1 ng, control 1.05 ± 0.020.
`c1coc(CNc2ncnc3[nH]cnc23)c1` [Kinetin, kinetin] returned a growth rate of 1.10 ± 0.042.

`O=C(O)COc1ccc(Cl)cc1Cl` [2,4-Dichlorophenoxyacetic, 2,4-dichlorophenoxyacetic acid] gave a growth rate of 1.08 ± 0.133.

As for `O=C(O)Cc1c[nH]c2ccccc12` [Indole-3-acetic acid, indole-3-acetic acid], the growth rate came out at 1.05 ± 0.019.

Staying with this assay, now noted: hormone 1 ng, control 1.05 ± 0.020.
The compound `c1coc(CNc2ncnc3[nH]cnc23)c1` [Kinetin, kinetin] had a growth rate of 1.02 ± 0.011.

Consider `O=C(O)COc1ccc(Cl)cc1Cl` [2,4-Dichlorophenoxyacetic, 2,4-dichlorophenoxyacetic acid], for which the growth rate came out at 1.01 ± 0.035.

Take `O=C(O)Cc1c[nH]c2ccccc12` [Indole-3-acetic acid, indole-3-acetic acid]: the growth rate is given as 0.97 ± 0.020.

Staying with this assay, now noted: hormone 10 ng, control 1.05 ± 0.020.
In turn, `c1coc(CNc2ncnc3[nH]cnc23)c1` [Kinetin, kinetin] returned a growth rate of 1.18 ± 0.050.

As for `O=C(O)COc1ccc(Cl)cc1Cl` [2,4-Dichlorophenoxyacetic, 2,4-dichlorophenoxyacetic acid], the growth rate is 1.08 ± 0.030.

With `O=C(O)Cc1c[nH]c2ccccc12` [Indole-3-acetic acid, indole-3-acetic acid], the growth rate is 1.13 ± 0.019.

The same assay, now with this note: hormone 100 ng, control 1.05 ± 0.020.
With `c1coc(CNc2ncnc3[nH]cnc23)c1` [Kinetin, kinetin], the growth rate worked out at 1.19 ± 0.035.

As for `O=C(O)COc1ccc(Cl)cc1Cl` [2,4-Dichlorophenoxyacetic, 2,4-dichlorophenoxyacetic acid], the growth rate came to 1.03 ± 0.069.

Regarding `O=C(O)Cc1c[nH]c2ccccc12` [Indole-3-acetic acid, indole-3-acetic acid], the growth rate is 1.02 ± 0.061.

Another assay relates to Chlorella protothecoides. The assay can be described thus: Effect of hormone concentrations on growth rate, heterotrophic conditions, 48 hours. The conditions noted are these: hormone 0.01 ng, control 1.54 ± 0.080. The class given is cell-based. On the set-up: unit not given here.
In the case of `c1coc(CNc2ncnc3[nH]cnc23)c1` [Kinetin, kinetin], the growth rate turned out to be 1.60 ± 0.050.

In the case of `O=C(O)COc1ccc(Cl)cc1Cl` [2,4-Dichlorophenoxyacetic, 2,4-dichlorophenoxyacetic acid], the growth rate worked out at 1.40 ± 0.061.

Regarding `O=C(O)Cc1c[nH]c2ccccc12` [Indole-3-acetic acid, indole-3-acetic acid], the growth rate is on record as 1.62 ± 0.133.

The same assay, now with this note: hormone 0.1 ng, control 1.54 ± 0.080.
Take `c1coc(CNc2ncnc3[nH]cnc23)c1` [Kinetin, kinetin]: the growth rate is given as 1.50 ± 0.050.

On to `O=C(O)COc1ccc(Cl)cc1Cl` [2,4-Dichlorophenoxyacetic, 2,4-dichlorophenoxyacetic acid], for which the growth rate was 1.53 ± 0.069.

Compound `O=C(O)Cc1c[nH]c2ccccc12` [Indole-3-acetic acid, indole-3-acetic acid] returned a growth rate of 1.61 ± 0.072.

Still in this assay, the particulars now being: hormone 1 ng, control 1.54 ± 0.080.
For `c1coc(CNc2ncnc3[nH]cnc23)c1` [Kinetin, kinetin], the growth rate turned out to be 1.44 ± 0.110.

Compound `O=C(O)COc1ccc(Cl)cc1Cl` [2,4-Dichlorophenoxyacetic, 2,4-dichlorophenoxyacetic acid] returned a growth rate of 1.43 ± 0.069.

In the case of `O=C(O)Cc1c[nH]c2ccccc12` [Indole-3-acetic acid, indole-3-acetic acid], the growth rate amounted to 1.49 ± 0.122.

Still in this assay, the particulars now being: hormone 10 ng, control 1.54 ± 0.080.
Compound `c1coc(CNc2ncnc3[nH]cnc23)c1` [Kinetin, kinetin] displayed a growth rate of 1.60 ± 0.070.

With `O=C(O)COc1ccc(Cl)cc1Cl` [2,4-Dichlorophenoxyacetic, 2,4-dichlorophenoxyacetic acid], the growth rate came to 1.31 ± 0.087.

In turn, `O=C(O)Cc1c[nH]c2ccccc12` [Indole-3-acetic acid, indole-3-acetic acid] gave a growth rate of 1.60 ± 0.099.

Still in this assay, the particulars now being: hormone 100 ng, control 1.54 ± 0.080.
Take `c1coc(CNc2ncnc3[nH]cnc23)c1` [Kinetin, kinetin]: the growth rate is 1.58 ± 0.061.

In the case of `O=C(O)COc1ccc(Cl)cc1Cl` [2,4-Dichlorophenoxyacetic, 2,4-dichlorophenoxyacetic acid], the growth rate came out at 1.50 ± 0.081.

In turn, `O=C(O)Cc1c[nH]c2ccccc12` [Indole-3-acetic acid, indole-3-acetic acid] yielded a growth rate of 1.60 ± 0.076.
